Drawing on patent US20260234157A1, “COMPOUND AND METHOD FOR TARGETED DEGRADATION OF ANDROGEN RECEPTOR” (Gan & Lee Pharmaceuticals Co., Ltd., priority 2023, published 2026), this text covers inhibition and IC50 for 13 molecules.

Substitutions are numbered along the chain they refer to. Some results are limits rather than exact numbers.

Common to all, as to format: cell-based
The target in experiment [1] is T1, AR protein (Homo sapiens, UniProt P10275, T878A).
T1 construct: degradation activity of the compounds disclosed in the present disclosure on AR protein in LNCaP cells; host or cells: LNCaP FGC
T1 sequence (P10275 1-920 T878A): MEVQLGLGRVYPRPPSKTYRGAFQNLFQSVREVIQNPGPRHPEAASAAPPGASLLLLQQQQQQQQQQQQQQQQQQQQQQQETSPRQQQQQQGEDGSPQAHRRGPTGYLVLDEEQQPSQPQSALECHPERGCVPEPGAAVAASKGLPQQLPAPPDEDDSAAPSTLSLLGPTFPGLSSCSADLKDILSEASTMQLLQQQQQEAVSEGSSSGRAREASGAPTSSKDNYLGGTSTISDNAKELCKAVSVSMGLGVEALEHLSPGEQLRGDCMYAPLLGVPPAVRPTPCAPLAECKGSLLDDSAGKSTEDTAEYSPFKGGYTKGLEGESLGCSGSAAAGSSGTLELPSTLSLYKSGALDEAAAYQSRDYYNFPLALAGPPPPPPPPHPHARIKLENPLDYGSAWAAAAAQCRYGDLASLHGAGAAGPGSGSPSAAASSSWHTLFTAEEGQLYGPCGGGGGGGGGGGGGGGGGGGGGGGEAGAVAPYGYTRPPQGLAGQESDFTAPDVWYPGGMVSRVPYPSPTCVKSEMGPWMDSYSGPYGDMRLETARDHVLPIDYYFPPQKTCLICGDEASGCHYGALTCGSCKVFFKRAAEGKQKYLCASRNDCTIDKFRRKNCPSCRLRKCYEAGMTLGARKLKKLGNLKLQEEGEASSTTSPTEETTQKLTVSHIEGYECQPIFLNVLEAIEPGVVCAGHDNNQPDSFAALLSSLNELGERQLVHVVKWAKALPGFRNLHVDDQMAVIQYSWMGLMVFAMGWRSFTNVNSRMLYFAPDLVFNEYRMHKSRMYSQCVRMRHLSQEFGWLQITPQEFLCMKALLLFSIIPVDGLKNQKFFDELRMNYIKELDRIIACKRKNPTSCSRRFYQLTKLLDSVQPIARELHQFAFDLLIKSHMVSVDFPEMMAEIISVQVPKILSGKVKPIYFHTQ
Nature of the experiment: Degradation of AR protein in LNCaP cells (Western blot). The following applies: LNCaP cells, 8 hours, Western blot grayscale, GAPDH internal reference; for inhibition at 0.01 µM: compound 10 nM, read-out: Degradation rates of the AR protein in LNCaP cells, 10 nM (%); for inhibition at 0.1 µM: compound 100 nM, read-out: Degradation rates of the AR protein in LNCaP cells, 100 nM (%). The method, boiled down: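 Percent AR degradation was derived from GAPDH-normalised Western blot band intensities (infrared detection) in LNCaP lysates.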
(Immunoblotting shows a protein as a band on a membrane.)

The target of experiment [2] is T2, AR protein (Homo sapiens, UniProt P10275).
T2 construct: degradation activity of the compounds disclosed in the present disclosure on AR protein in VCaP cells; host or cells: VCaP
T2 sequence (P10275 1-920): T1 sequence (P10275 1-920 T878A) with A878T
Nature of the experiment: Degradation of AR protein in VCaP cells (Western blot). The following applies: 8 hours; for inhibition at 0.01 µM: compound at 10 nM, read-out: Degradation rate of the AR protein in VCaP cells, 10 nM (%); for inhibition at 0.1 µM: compound at 100 nM, read-out: Degradation rate of the AR protein in VCaP cells, 100 nM (%). The method in brief:
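Western blot readout: AR band grayscale normalised to GAPDH, used to derive degradation rate. Lysates came from VCaP cells exposed to compound for 8 h, with solvent controls run in parallel.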

Experiment [3] has as its system LNCaP FGC cells. Put plainly: Inhibition of proliferation of LNCaP cells (WST-8). Conditions: Homo sapiens, LNCaP, 96 h, LNCaP FGC cells, 96 hours, WST-8 absorbance at 450 nm; read-out: IC50 for inhibiting the proliferation of LNCaP cells. Here is the method:
The cells were cultured in a cell culture incubator with 5% CO2 at 37° C. overnight. […] On the sixth day, 96 well plates were taken out, and 20 μL of WST-8 (Beytime, C0040) reagent was added to each well.

The test system of experiment [4] is VCaP cells. Put plainly: Inhibition of proliferation of VCaP cells (WST-8). Conditions: Homo sapiens; VCaP cells, 168 hours, WST-8 absorbance at 450 nm; read-out: IC50 for inhibiting the proliferation of VCaP cells. The method, boiled down:
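Proliferation was read by WST-8 on day nine. Cells were VCaP FGC, seeded at 15000 cells per well in 10% FBS DMEM and kept at 37° C with 5% CO2.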
In general terms: Tetrazolium assays rely on reduction of a dye to a coloured formazan, in cell work by metabolically active cells.

With `N#Cc1ccc(O[C@H]2CC[C@H](NC(=O)c3ccc(N4CCC5(CCC(N6CCC7(CCc8cc9c(cc8O7)C(=O)N(C7CCC(=O)NC7=O)C9=O)CC6)CC5)CC4)nn3)CC2)cc1Cl` (stereo partly drawn) [Compound 30], the inhibition at 0.01 µM in experiment [1] turned out to be 28%; in experiment [2] it was 39%. Also, the inhibition at 0.1 µM in experiment [1] amounted to 62%; in experiment [2], 64%. Further, the results for the IC50 in experiment [3] and in experiment [4] were 1.9 µM and 850 nM, respectively.

On to `COc1cc(O[C@H]2C(C)(C)[C@H](NC(=O)c3ccc(N4CCC(CN5CC6(CCc7cc8c(cc7O6)CN(C6CCC(=O)NC6=O)C8=O)C5)CC4)cc3)C2(C)C)ccc1C#N` (stereo partly drawn) [Compound 297], for which the inhibition at 0.01 µM amounted to 42% in experiment [1] and 47% in experiment [2]. The inhibition at 0.1 µM in experiment [1] stood at 40%; in experiment [2] it was 81%. Further, the IC50 in experiment [3] is 61.4 µM; in experiment [4] it was 2 nM.

`CCOC1(CN2CCC3(CC2)COc2c3ccc3c2C(=O)N(C2CCC(=O)NC2=O)C3=O)CCN(c2ccc(C(=O)N[C@H]3C(C)(C)[C@H](Oc4ccc(C#N)c(OC)c4)C3(C)C)cc2)CC1` (stereo partly drawn) [Compound 295]: the results for the inhibition at 0.01 µM in experiment [1] and in experiment [2] were 1% and -4%, respectively. The inhibition at 0.1 µM in experiment [1] stood at 44%; in experiment [2] it was 37%. The IC50 in experiment [3] was 0.37 µM; in experiment [4], 20 nM.

Take `N#Cc1ccc(O[C@H]2CC[C@H](NC(=O)c3ccc(N4CC5(CCC(N6CCC7(CC6)COc6cc8c(cc6C7)C(=O)N(C6CCC(=O)NC6=O)C8=O)CC5)C4)nn3)CC2)cc1Cl` (stereo partly drawn) [Compound 65]: the inhibition at 0.01 µM was 36% in experiment [1] and 50% in experiment [2]. For the same molecule, the inhibition at 0.1 µM in experiment [1] stood at 75%; in experiment [2] it was 71%. Further, the IC50 is 0.5 µM in experiment [3] and 100 nM in experiment [4].

With `N#Cc1ccc(O[C@H]2CC[C@H](NC(=O)c3ccc(N4CCC5(CCC(N6CCC7(CCc8ccc9c(c8O7)CN(C7CCC(=O)NC7=O)C9=O)CC6)CC5)CC4)nn3)CC2)cc1Cl` (stereo partly drawn) [Compound 150], the inhibition at 0.01 µM in experiment [1] is 52%; in experiment [2], 65%. Also, the results for the inhibition at 0.1 µM in experiment [1] and in experiment [2] were 35% and 86%, respectively. The IC50 in experiment [3] was 3.13 µM; in experiment [4] it was 3340 nM.

With `COc1cc(O[C@H]2C(C)(C)[C@H](NC(=O)c3ccc(N4CCC(F)(CN5CCC6(CCc7cc8c(cc7O6)C(=O)N(C6CCC(=O)NC6=O)C8=O)CC5)CC4)cc3)C2(C)C)ccc1C#N` (stereo partly drawn) [Compound 270], the inhibition at 0.01 µM in experiment [1] worked out at 47%; in experiment [2], 9%. In addition, the inhibition at 0.1 µM was 40% in experiment [1] and 28% in experiment [2]. Besides, the results for the IC50 in experiment [3] and in experiment [4] were 72 µM and 110 nM, respectively.

In the case of `N#Cc1ccc(O[C@H]2CC[C@H](NC(=O)c3ccc(N4CCC5(CC(N6CCC7(CC6)COc6cc8c(cc67)C(=O)N(C6CCC(=O)NC6=O)C8=O)C5)C4)nn3)CC2)cc1Cl` (stereo partly drawn) [Compound 54], the figures for the inhibition at 0.01 µM in experiment [1] and in experiment [2] were 24% and 75%, respectively. Moreover, the values for the inhibition at 0.1 µM in experiment [1] and in experiment [2] were 76% and 85%, respectively. The IC50 in experiment [3] worked out at 1.7 µM; in experiment [4] it was 47 nM.

On to `COc1cc(O[C@H]2C(C)(C)[C@H](NC(=O)c3ccc(N4CCC(F)(CN5CCC6(CC5)COc5cc7c(cc5O6)CN(C5CCC(=O)NC5=O)C7=O)CC4)cc3)C2(C)C)ccc1C#N` (stereo partly drawn) [Compound 284], for which the inhibition at 0.01 µM in experiment [1] was determined as 18%; in experiment [2], 9%. Also, the inhibition at 0.1 µM turned out to be 51% in experiment [1] and 73% in experiment [2]. The IC50 is 5.84 µM in experiment [3] and 19 nM in experiment [4].

Consider `N#Cc1ccc(O[C@H]2CC[C@H](NC(=O)c3ccc(N4CCC5(CC4)CC(N4CCC6(CC4)COc4cc7c(cc4C6)C(=O)N(C4CCC(=O)NC4=O)C7=O)C5)nn3)CC2)cc1Cl` (stereo partly drawn) [Compound 71], for which the inhibition at 0.01 µM in experiment [1] was found to be 37%; in experiment [2], 54%. Moreover, the inhibition at 0.1 µM in experiment [1] was found to be 71%; in experiment [2], 66%. In addition, the IC50 in experiment [3] stood at 0.5 µM; in experiment [4], 160 nM.

In the case of `COc1cc(O[C@H]2C(C)(C)[C@H](NC(=O)c3ccc(N4CCC(C)(CN5CC6(CCc7cc8c(cc7O6)C(=O)N(C6CCC(=O)NC6=O)C8)C5)CC4)cc3)C2(C)C)ccc1C#N` (stereo partly drawn) [Compound 265], the inhibition at 0.01 µM in experiment [1] amounted to 66%; in experiment [2], 34%. The inhibition at 0.1 µM in experiment [1] stood at 61%; in experiment [2] it was 78%. In addition, the IC50 was 44.4 µM in experiment [3] and 1.5 nM in experiment [4].

Consider `CCOC1(CN2CCC3(CC2)COc2c3ccc3c2C(=O)N(C2CCC(=O)NC2=O)C3=O)CCN(c2ccc(C(=O)N[C@H]3CC[C@H](Oc4ccc(C#N)c(C(F)(F)F)c4)CC3)nn2)CC1` (stereo partly drawn) [Compound 242], for which the inhibition at 0.01 µM in experiment [1] is -18%; in experiment [2], -5%. The results for the inhibition at 0.1 µM in experiment [1] and in experiment [2] were 11% and 15%, respectively. Moreover, the IC50 in experiment [3] was found to be 0.64 µM; in experiment [4], 94 nM.

Take `N#Cc1ccc(O[C@H]2CC[C@H](NC(=O)c3ccc(N4CCC(F)(CN5CC6(CCc7ccc8c(c7O6)C(=O)N(C6CCC(=O)NC6=O)C8)C5)CC4)nn3)CC2)cc1Cl` (stereo partly drawn) [Compound 139]: the inhibition at 0.01 µM in experiment [1] is 42%; in experiment [2], -16%. For the same molecule, the figures for the inhibition at 0.1 µM in experiment [1] and in experiment [2] were 11% and -31%, respectively. The IC50 in experiment [3] was 52.3 µM; in experiment [4], greater than 90000 nM.

Consider `COc1cc(O[C@H]2C(C)(C)[C@H](NC(=O)c3ccc(N4CCC(C)(CN5CC6(CCc7ccc8c(c7O6)C(=O)N(C6CCC(=O)NC6=O)C8=O)C5)CC4)cc3)C2(C)C)ccc1C#N` (stereo partly drawn) [Compound 290], for which the inhibition at 0.01 µM in experiment [1] was -14%; in experiment [2], -2%. In addition, the inhibition at 0.1 µM in experiment [1] turned out to be 18%; in experiment [2], 6%. Also, the IC50 in experiment [3] came out at 60.9 µM; in experiment [4], 9420 nM.
